Holding throughout (format): cell-based
The target of one assay is T1, KCNJ5^WT (Homo sapiens, UniProt P48544).
T1 construct: expressed in transfected cells
T1 sequence (P48544 1-419): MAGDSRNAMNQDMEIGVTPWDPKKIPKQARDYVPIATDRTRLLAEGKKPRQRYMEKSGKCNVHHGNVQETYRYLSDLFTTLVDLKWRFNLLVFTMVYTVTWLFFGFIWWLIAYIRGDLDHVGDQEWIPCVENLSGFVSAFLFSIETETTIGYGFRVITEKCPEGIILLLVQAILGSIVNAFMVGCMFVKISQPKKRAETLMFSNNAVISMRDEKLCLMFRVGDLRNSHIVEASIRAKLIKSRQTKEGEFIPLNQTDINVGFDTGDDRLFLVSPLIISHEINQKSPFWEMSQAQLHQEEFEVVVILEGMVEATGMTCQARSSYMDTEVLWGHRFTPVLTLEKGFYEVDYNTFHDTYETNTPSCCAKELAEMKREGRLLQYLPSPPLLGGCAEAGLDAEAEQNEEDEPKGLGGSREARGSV
Put plainly: Membrane potential assay (FLIPR dye) in inducible KCNJ5^WT HEK293 cells. Conditions: 10-point dilution 20 to 0.0391 μM, N=3, four-parameter fit. As to the method: Single copies of WT or mutant human KCNJ5 cDNAs expressed under the control of tetracycline-inducible promoter were introduced into HEK293 cells using the Flp-in T-Rex System (Invitrogen) according to the manufacturer's instructions. Cells were grown in selective media containing 10% Tet-system approved FBS (Clontech) until induction.
20 μL of WT cells were plated into sterile black with clear bottom tissue culture-treated 384-well plates (Corning) at a density of 10000 cells/well using a Multidrop Combi. Assay plates were centrifuged at 500 rpm for 10 seconds and incubated overnight at 37° C. in a humidified 5% CO2 incubator. After the overnight incubation, 1 μL of tetracycline (final conc. 1 μg/mL) was added to all wells by Multidrop Combi to induce KCNJ5. Assay plates were centrifuged at 500 rpm for 10 seconds and incubated overnight at 37° C. in a humidified 5% CO2 incubator. The next day, 10 μL of medium was removed from each well using a PlateMate Plus (Thermo Scientific). 10 μL of Blue Formula FLIPR membrane potential dye (Molecular Devices) was added to cells using a Multichannel pipettor. Assay plates were incubated for 30 minutes. at 37° C. After incubation, 20 nL was transferred twice from the compound source plate to the cell assay plate using an Aquarius with a 384-well pin tool for a total transfer volume of 40 nL and a final DMSO concentration of 0.2%. 1 μL of 20 mM BaCl2 was added to positive control wells using a Multichannel pipettor. The assay plate was incubated 20 minutes at room temperature in the dark.
Changes in membrane potential were detected using a well-established fluorescence-based measure of membrane potential (FIG. 4).

The target of the next assay is T2, KCNJ5^L168R (Homo sapiens, UniProt P48544, L168R).
T2 construct: expressed in transfected cells
T2 sequence (P48544 1-419 L168R): T1 sequence (P48544 1-419) with L168R
Put plainly: Cell viability assay (ATP, CellTiter-Glo): rescue of KCNJ5^L168R-induced lethality in inducible HEK293 cells. The note with it: for dose response on KCNJ5^L168R: tested at 1.1, 3.3 and 10 μM. As to the method:
(§1) WT or mutant human KCNJ5 cDNAs (Choi et al., 2011, Science 331:768-772) were subcloned into the pcDNA5/FRT/TO vector using BamHI and HindIII. Single copies of WT or mutant human KCNJ5 cDNAs expressed under the control of tetracycline-inducible promoter were introduced into HEK293 cells using the Flp-in T-Rex System (Invitrogen) according to the manufacturer's instructions. Cells were grown in selective media containing 10% Tet-system approved FBS (Clontech) until induction.
(§2) Assay plates were centrifuged and incubated overnight at 37° C. 20 nL was transferred from the compound source plate to the cell assay plate using an Aquarius (Tecan) with a 384-well pin tool (V&P Scientific). The final concentration of compound for screening was 10 μM and the final DMSO concentration was 0.1%. 1 μL of tetracycline (final concentration 1 μg/mL) was added to compound containing and negative control wells by Multidrop Combi to induce expression. 1 μL of media was added to positive control wells. Assay plates were centrifuged and incubated for 72 hours at 37° C., 5% CO2. CellTiter-Glo (Promega) was used to measure cell viability in the assay wells according to the manufacturer's instructions. 10 μL/well of CellTiter-Glo reagent was added to the assay plates using a MultiDrop Combi. The plates were shaken on a Thermomixer R (Eppendorf) at 1100 rpm for 1 minute and incubated in the dark for 10 minutes at room temperature. Luminescence was read on an Envision plate reader (PerkinElmer) with 0.3 second sampling time per well. Raw data (luminescence counts per second) was normalized to percent effect by the formula 100−(((sample−negative control mean)/(positive control mean−negative control mean))*100).
(§3) Data was analyzed using the programs Excel (Microsoft) and Prism (GraphPad). Errors are SD unless otherwise indicated in the legend. Dose-response curves were fitted with a four-parameter logistic equation: F(x)=D+(A−D)/(1+(x/C)^B), with A=minimum inhibition B=Hill's slope C=inflection point D=maximum inhibition Synthesis of Macrolide Derivatives
(§4) Cellular ATP levels were measured as a proxy for cell viability, using a commercially available luciferase assay (Crouch et al., 1993, Proc. Natl. Acad. Sci. U.S.A. 109:2533-2538).
(§5) Conditions were designed to maximize reproducibility and the signal-to-background ratios (S/B) (Zhang et al., 1999, J. Biomol. Screen 4:67-73) comparing ATP level in uninduced and induced cells. Screening was performed in 384-well plates; compounds were added 24 hours after plating, and channel expression was induced immediately after compound addition. ATP levels were measured 72 hours after induction.
A general note: Cellular ATP, detected with luciferase, serves as a proxy for viable cell number.

Another assay deals with T3, KCNJ5^G151R (Homo sapiens, UniProt P48544, G151R).
T3 construct: expressed in transfected cells
T3 sequence (P48544 1-419 G151R): T1 sequence (P48544 1-419) with G151R
Put plainly: cell-based. Conditions: for G151R maximum inhibition / G151R minimum inhibition / IC50: 10-point dilution 20 to 0.0391 μM, N=3, four-parameter fit. As to the method: as §1, §2, §3, §4, §5
Levels of ATP in uninduced and induced cells without added test compound defined 100% and 0% effect, respectively, and served as a proxy for lethality.

Setting [1] is: 10-point dilution 20 to 0.0391 μM, N=3, four-parameter fit.

SMILES strings stand for the structures. Where a chain is given by its changes, count along the chain named. Like-named read-outs stand apart in the source and are kept apart here.

As a reminder, the IC50 is the concentration that inhibits the measured activity by half. A higher IC50 goes with lower potency. Consider `CC[C@H]1OC(=O)[C@H](C)[C@@H](O[C@H]2C[C@@](C)(OC)[C@@H](O)[C@H](C)O2)[C@H](C)[C@@H](O[C@@H]2O[C@H](C)C[C@H](N(C)C)[C@H]2O)[C@](C)(O)C[C@@H](C)CN(C)[C@H](C)[C@@H](O)[C@]1(C)O` [Azithromycin, azithromycin], for which the “WT IC50” value at KCNJ5^WT was “No fit”. For the same molecule, at KCNJ5^L168R (setting [1]), the midpoint of inhibition, the IC50, lay at 8.05 µM; the L168R maximum inhibition was 12.01%; the L168R minimum inhibition came out at 0.71%. Moreover, at KCNJ5^G151R, the G151R maximum inhibition is 32.00%, the G151R minimum inhibition came to 5.11% and the IC50 is 5.69 µM.
As for `CC[C@H]1OC(=O)[C@H](C)[C@@H](O[C@H]2C[C@@](C)(OC)[C@@H](O)[C@H](C)O2)[C@H](C)[C@@H](O[C@@H]2O[C@H](C)C[C@H](N(C)C)[C@H]2O)[C@](C)(OC)C[C@@H](C)C(=O)[C@H](C)[C@@H](O)[C@]1(C)O` [Clarithromycin, clarithromycin], the “WT IC50” value at KCNJ5^WT is recorded as “No fit”. On KCNJ5^L168R (setting [1]), inhibition was half-maximal at 1.72 µM (IC50), the L168R maximum inhibition was found to be 55.70% and the L168R minimum inhibition came to 2.35%. Besides, at KCNJ5^L168R, the “dose response on KCNJ5^L168R” value is recorded as “showed a dose response”. Also, at KCNJ5^G151R, the G151R maximum inhibition was determined as 83.09%, the G151R minimum inhibition amounted to 6.40% and the IC50 worked out at 0.71 µM. On KCNJ5^G151R (macrolide series, dilution curves), the “inhibition of KCNJ5^MUT (structure-activity statement)” value was “potent effects”.
With `CC[C@H]1OC(=O)[C@H](C)[C@@H](O[C@H]2C[C@@](C)(OC)[C@@H](O)[C@H](C)O2)[C@H](C)[C@@H](O[C@@H]2O[C@H](C)C[C@H](N(C)C)[C@H]2O)[C@](C)(O)C[C@@H](C)[C@@H]2N[C@@H](COCCOC)O[C@H]([C@H]2C)[C@]1(C)O` [Dirithromycin, dirithromycin], the “WT IC50” value on KCNJ5^WT is “No fit”. For the same molecule, the “L168R IC50” value at KCNJ5^L168R (setting [1]) is listed as “No fit”. In addition, at KCNJ5^G151R, the G151R maximum inhibition turned out to be 18.29%, the G151R minimum inhibition is 1.31% and the IC50 turned out to be 15.8 µM.
Consider `CC[C@H]1OC(=O)[C@H](C)[C@@H](O[C@H]2C[C@@](C)(OC)[C@@H](O)[C@H](C)O2)[C@H](C)[C@@H](O[C@@H]2O[C@H](C)C[C@H](N(C)C)[C@H]2O)[C@](C)(O)C[C@@H](C)C(=NO)[C@H](C)[C@@H](O)[C@]1(C)O` [Erythromycin A Oxime, erythromycin A oxime], for which, on KCNJ5^WT, the “WT IC50” value is “No fit”. On KCNJ5^L168R (setting [1]), 8.13 µM corresponded to half-maximal inhibition (IC50), the L168R maximum inhibition worked out at 60.00% and the L168R minimum inhibition was 0.65%. The “dose response on KCNJ5^L168R” value on KCNJ5^L168R is “showed a dose response”. At KCNJ5^G151R, the G151R maximum inhibition is listed as 84.11%, the G151R minimum inhibition amounted to 2.49% and the IC50 came to 2.88 µM.
In the case of `CC[C@H]1OC(=O)[C@H](C)[C@@H](O[C@H]2C[C@@](C)(OC)[C@@H](O)[C@H](C)O2)[C@H](C)[C@@H](O[C@@H]2O[C@H](C)C[C@H](N(C)C)[C@H]2O)[C@](C)(O)C[C@@H](C)C(=O)[C@H](C)[C@@H](O)[C@H]1C` [Erythromycin B, erythromycin B], on KCNJ5^WT, the “WT IC50” value is “No fit”. On KCNJ5^L168R (setting [1]), this molecule gave a half-maximal inhibitory concentration (IC50) of 4.73 µM, an L168R maximum inhibition of 80.00% and an L168R minimum inhibition of 1.62%. On KCNJ5^G151R, this molecule displayed a G151R maximum inhibition of 84.36%, a G151R minimum inhibition of 7.15% and an IC50 of 1.23 µM.
In the case of `CC[C@H]1OC(=O)[C@H](C)[C@@H](O[C@H]2C[C@@](C)(O)[C@@H](O)[C@H](C)O2)[C@H](C)[C@@H](O[C@@H]2O[C@H](C)C[C@H](N(C)C)[C@H]2O)[C@](C)(O)C[C@@H](C)C(=O)[C@H](C)[C@@H](O)[C@]1(C)O` [Erythromycin C, erythromycin C], the “WT IC50” value on KCNJ5^WT is “No fit”. On KCNJ5^L168R (setting [1]), this molecule displayed an IC50 of 12.2 µM, an L168R maximum inhibition of 18.43% and an L168R minimum inhibition of 1.41%. For the same molecule, at KCNJ5^G151R, the G151R maximum inhibition stood at 75.00%, the G151R minimum inhibition came to 6.72% and the IC50 was 9.19 µM.
Turning to `CC[C@H]1OC(=O)[C@H](C)[C@@H](O[C@H]2C[C@@](C)(OC)[C@@H](O)[C@H](C)O2)[C@H](C)[C@@H](O[C@@H]2O[C@H](C)C[C@H](N(C)C)[C@H]2O)[C@](C)(O)C[C@@H](C)C(=O)[C@H](C)[C@@H](O)[C@]1(C)O` [Erythromycin, erythromycin], the “WT IC50” value on KCNJ5^WT is on record as “No fit”. On KCNJ5^L168R (setting [1]), this molecule returned an IC50 of 11.8 µM, an L168R maximum inhibition of 25.00% and an L168R minimum inhibition of 0.71%. Besides, the “dose response on KCNJ5^L168R” value on KCNJ5^L168R is listed as “showed a dose response”. Moreover, at KCNJ5^G151R, the G151R maximum inhibition was determined as 90.00%, the G151R minimum inhibition is recorded as 3.55% and the concentration for half-maximal inhibition (IC50) is 10.5 µM. On KCNJ5^G151R (HEK293, 72 h, mean of primary screen and hit pick, read-out: mean % effect), the viability at 10 µM turned out to be 73%. Also, the viability at 10 µM on KCNJ5^G151R (HEK293, ATP level 72 h after induction, uninduced = 100%, induced = 0% effect, first of the two runs (primary screen / hit pick), read-out: % effect (1)) amounted to 91.9%. The viability at 10 µM on KCNJ5^G151R (HEK293, ATP level 72 h after induction, uninduced = 100%, induced = 0% effect, second of the two runs (primary screen / hit pick, confirmatory testing), read-out: % effect (2)) came out at 54.2%.

(Values after US11484543B2, “Compositions and methods for diagnosing and treating diseases and disorders associated with mutant KCNJ5” (The Rockefeller University, priority 2017, dated 2022).)
